Assay results reported in patent US10111885B2, “Compositions and therapeutic methods for the treatment of complement-associated diseases” (Resverlogix Corp., priority 2015, dated 2018).
Like-named read-outs stand apart in the source and are kept apart here.

What was measured:
[1] = test system: C1S mRNA; assay: Complement gene mRNA expression, TaqMan real-time PCR, HepG2 cells; format: cell-based; conditions: Homo sapiens; HepG2, 48 h treatment; read-out: C1S (48 h) mRNA, half maximal inhibitory concentration (IC50)
Text: (§1) In this example, mRNA levels from cultured cells were quantitated. The assay can be used to determine the effect of compound(s) on regulating mRNA levels, including those compounds in the present invention. Complement genes are expressed at high endogenous levels, but their expression can also be stimulated with various cytokines in inflammatory conditions. Experiments in this example target both basal and inflammatory complement gene expression. Compound mediated changes in gene expression and resulting mRNA levels are presented in Tables 2, 3 and 4 as well as FIGS. 1, 2, 3 and 4 below.
(§2) Huh-7 and HepG2 cells are liver-derived cell lines and are models for what can occur in the liver. Huh-7 cells (JCRB Cell Bank) were introduced to 96-well plates (^˜2.5×10^5 per well) in 100 μL DMEM containing 10% (v/v) FBS, 100 U/mL penicillin, 100 ug/mL streptomycin and 5 ug/mL plasmocin (all reagents from Gibco, except for the former, which was obtained from Invivogen). After 24 h, Huh-7 cells were treated with compounds in the same media formulation used for plating, and supplemented with 0.1% DMSO for the amount of time indicated in tables 2, 3, and 4. For select experiments, 24 h post-plating, cells were treated with cytokines and the compound of interest simultaneously, for a total treatment time of 48 h. Alternatively, 24 h after plating, cells were pre-treated with cytokines for 24 h before adding the compound of interest for 48 h. HepG2 cells (ATCC) were cultured in 96-well plates (^˜2.5×10^5 per well) in MEM containing 10% FBS, 1× non-essential amino acids, 1 mM sodium pyruvate, 2 mM L-glutamine, 100 U/mL penicillin, 100 ug/mL streptomycin and 5 ug/mL plasmocin. Serum amount was reduced to 0.5% for treatments with compound or cytokines. Timing of treatment of HepG2 cells with compounds and cytokines was as described for Huh-7 cells. Primary human hepatocytes (CellzDirect/Life Technologies) were plated in collagen coated 96-well plates at 70 000 cells/well, then overlaid with Matrigel™ as recommended by the supplier. Cells were treated with compounds of interest and/or cytokines for the indicated time points in the recommended media supplemented with 0.1% DMSO and 10% FBS (v/v). Cells were harvested by mRNA Catcher PLUS Kit (Life Technologies) followed by real-time PCR using the RNA UltraSense One-Step qRT-PCR System. The level of the mRNA of interest was measured by TaqMan real-time PCR relative to the endogenous control cyclophilin A in the same sample. […]
(§3) Downregulation of expression of components of the complement cascade will result in reduced activity of the pathway and thus will constitute a positive result. […] Table 4 lists the maximum reduction in the indicated mRNA measured in primary human hepatocytes treated with compounds for up to 72 hours. […]

[2] = test system: MBL2 mRNA; assay: as above; format: cell-based; conditions: Homo sapiens; HepG2, 48 h treatment; read-out: MBL2 (48 h) mRNA, half maximal inhibitory concentration (IC50)
Text: as §1, §2, §3

[3] = test system: complement C3 protein; assay: Secreted complement protein ELISA, Huh-7 cells; format: cell-based, human; conditions: for C3 secretion, percent maximum reduction in protein levels: Huh-7, 72 h, ± standard deviation
Experimental: (§4) In this example, protein secretion from cells grown in culture in the presence of compound of interest was analyzed by enzyme linked immunosorbent assay (ELISA). In some cases, cultured cells were treated with cytokines and the compound of interest to mimic an inflammatory state. The method can be used to determine the effect of compounds, including those in the present invention, on the secretion of specific proteins from cells grown in culture under basal and cytokine stimulated (i.e. inflammatory) conditions (Table 7, FIGS. 5 and 6).
(§5) Huh-7 cells (JCRB Cell Bank) were introduced to 24-well plates in 500 μL DMEM supplemented with 10% (v/v) FBS, 100 U/mL penicillin, 100 ug/mL streptomycin and 5 ug/mL plasmocin (all reagents from Gibco, except for the former, which comes from Invivogen) at 200 000 cells/well. After 24 h, cells were treated with the compound of interest and/or cytokines in DMEM with 10% FBS containing 0.1% DMSO for a total treatment time of 72 h. Fresh media containing compounds and/or cytokines was introduced in the final 24 h of the experiment. At harvest, media were collected, debris was removed by brief centrifugation, and ELISA assays for the indicated proteins were performed as per the manufacturer's protocol. To correct for differences in cell numbers, values obtained for complement proteins were normalized to values for transferrin. HepG2 cells (ATCC) were cultured in MEM containing 10% FBS, 1× non-essential amino acids, 1 mM sodium pyruvate, 2 mM L-glutamine, 100 U/mL penicillin, 100 ug/mL streptomycin and 5 ug/mL plasmocin. Serum amount was reduced to 0.5% when compounds were present. Treatment combinations and timing were as described above for Huh-7 cells. Primary human hepatocytes (CellzDirect/Life Technologies) were plated in collagen coated 96-well plates at 70 000 cells/well, then overlaid with Matrigel™ as recommended by the supplier. Cells were treated with compounds of interest with or without the indicated cytokines for a total of 72 h in the recommended media supplemented with 10% FBS and 0.1% DMSO (v/v). Media were collected for measurements of secreted proteins.
(§6) The ELISA kits for detection of complement C3, C4, C5 and C9 were obtained from AssayPro (St. Charles, Mo.), while the ELISA reagents for transferrin detection were from Bethyl Laboratories (Montgomery, Tex.). Data were collected on a Thermo Scientific Multiskan GO apparatus. Downregulation of expression of components of the complement cascade will result in reduced activity of the pathway and thus will constitute a positive result.

[4] = test system: complement C5 protein; assay: Secreted complement protein ELISA, Huh-7 cells; format: cell-based, human; conditions: for C5 secretion, percent maximum reduction in protein levels: Huh-7, 72 h, ± standard deviation
Experimental: as §4, §5, §6

[5] = test system: complement C4 protein; assay: Secreted complement protein ELISA, Huh-7 cells; format: cell-based, human; conditions: for C4 secretion, percent maximum reduction in protein levels: Huh-7, 72 h, ± standard deviation
Experimental: as §4, §5, §6

[6] = test system: C4a/C4b mRNA; assay: Complement gene mRNA expression, TaqMan real-time PCR, HepG2 cells; format: cell-based, human; conditions: for IC50: Homo sapiens, HepG2, 72 h, read-out: C4a/C4b (72 h) mRNA, half maximal inhibitory concentration (IC50)
Text: as §1
(§7) Huh-7 and HepG2 cells are liver-derived cell lines and are models for what can occur in the liver. Huh-7 cells (JCRB Cell Bank) were introduced to 96-well plates (^˜2.5×10^5 per well) in 100 μL DMEM containing 10% (v/v) FBS, 100 U/mL penicillin, 100 ug/mL streptomycin and 5 ug/mL plasmocin (all reagents from Gibco, except for the former, which was obtained from Invivogen). After 24 h, Huh-7 cells were treated with compounds in the same media formulation used for plating, and supplemented with 0.1% DMSO for the amount of time indicated in tables 2, 3, and 4. For select experiments, 24 h post-plating, cells were treated with cytokines and the compound of interest simultaneously, for a total treatment time of 48 h. Alternatively, 24 h after plating, cells were pre-treated with cytokines for 24 h before adding the compound of interest for 48 h. HepG2 cells (ATCC) were cultured in 96-well plates (^˜2.5×10^5 per well) in MEM containing 10% FBS, 1× non-essential amino acids, 1 mM sodium pyruvate, 2 mM L-glutamine, 100 U/mL penicillin, 100 ug/mL streptomycin and 5 ug/mL plasmocin. Serum amount was reduced to 0.5% for treatments with compound or cytokines. Timing of treatment of HepG2 cells with compounds and cytokines was as described for Huh-7 cells. Primary human hepatocytes (CellzDirect/Life Technologies) were plated in collagen coated 96-well plates at 70 000 cells/well, then overlaid with Matrigel™ as recommended by the supplier. Cells were treated with compounds of interest and/or cytokines for the indicated time points in the recommended media supplemented with 0.1% DMSO and 10% FBS (v/v). Cells were harvested by mRNA Catcher PLUS Kit (Life Technologies) followed by real-time PCR using the RNA UltraSense One-Step qRT-PCR System. The level of the mRNA of interest was measured by TaqMan real-time PCR relative to the endogenous control cyclophilin A in the same sample. Data were acquired using the ViiA-7 Real Time PCR System (Applied Biosystems).
(§8) Downregulation of expression of components of the complement cascade will result in reduced activity of the pathway and thus will constitute a positive result. Tables 2 and 3 list the concentration of compounds at which the level of the indicated mRNA is reduced by 50%, as well as the duration of treatment with compound. Table 4 lists the maximum reduction in the indicated mRNA measured in primary human hepatocytes treated with compounds for up to 72 hours. FIGS. 1, 2, 3 and 4 show effects of compounds on cytokine-induced (i.e. inflammatory) expression of complement genes in Huh-7 cells and HepG2 cells.

[7] = test system: C3 mRNA; assay: as above; format: cell-based, human; conditions: for IC50: Homo sapiens
Text: as §1, §7, §8

[8] = test system: C5 mRNA; assay: as above; format: cell-based, human; conditions: for IC50: Homo sapiens, HepG2, 72 h, read-out: C5 (72 h) mRNA, half maximal inhibitory concentration (IC50)
Text: as §1, §7, §8

[9] = HepG2, 72 h, read-out: C3 (72 h) mRNA, half maximal inhibitory concentration (IC50)
[10] = 30 uM, Huh-7 treated simultaneously with IL-6
[11] = HepG2 pre-treated with cytokines
[12] = HepG2 treated simultaneously with cytokines

Cc1sc2c(c1C)C(c1ccc(Cl)cc1)=N[C@@H](CC(=O)OC(C)(C)C)c1nnc(C)n1-2 [JQ1, (S)-tert-butyl 2-(4-(4-chlorophenyl)-2,3,9-trimethyl-6H-thieno[3,2-f][1,2,4]triazolo[4,3-a][1,4]diazepin-6-yl)acetate, reference compound]
IC50 [1]: 120 nM | IC50 [2]: 30 nM | C3 secretion, percent maximum reduction in protein levels ([3]; 0.75 uM): 99 ± 1% | C5 secretion, percent maximum reduction in protein levels ([4]; 0.75 uM): 50 ± 13% | C4 secretion, percent maximum reduction in protein levels ([5]; 0.75 uM): 81 ± 6% | IC50 [6]: 250 nM | IC50 ([7]; HepG2, 48 h, read-out: C3 (48 h) mRNA, half maximal inhibitory concentration (IC50)): 200 nM | IC50 [7, 9]: 490 nM | IC50 [8]: 460 nM

COc1cc(OC)c2c(=O)[nH]c(-c3cc(C)c(OCCO)c(C)c3)nc2c1 [RVX000222, 2-(4-(2-hydroxyethoxy)-3,5-dimethylphenyl)-5,7-dimethoxyquinazolin-4(3H)-one]
IC50 [1]: 9560 nM | IC50 [2]: 3880 nM | C3 secretion, percent maximum reduction in protein levels ([3]; 30 uM): 87 ± 9% | secretion of C3 protein (FIG. 5) [3, 10]: reduces secretion | C5 secretion, percent maximum reduction in protein levels ([4]; 30 uM): 53 ± 7% | secretion of C5 protein (FIG. 5) [4, 10]: reduces secretion | C4 secretion, percent maximum reduction in protein levels ([5]; 30 uM): 79 ± 3% | secretion of C4 protein (FIG. 5) [5, 10]: reduces secretion | expression of complement component 4 at the mRNA level (FIG. 4) [6, 11]: reduces expression | expression of complement component 4 at the mRNA level (FIG. 2) [6, 12]: reduces expression | IC50 [6]: 10000 nM | expression of complement component 3 at the mRNA level (FIG. 4) [7, 11]: reduces expression | expression of complement component 3 at the mRNA level (FIG. 2) [7, 12]: reduces expression | IC50 [7, 9]: 25000 nM | expression of complement component 5 at the mRNA level (FIG. 4) [8, 11]: reduces expression | expression of complement component 5 at the mRNA level (FIG. 2) [8, 12]: reduces expression | IC50 [8]: 20000 nM
